Data published in patent publication US8759539B2, “Substituted bicyclic amines for the treatment of diabetes” (Merck Sharp & Dohme Corp., priority 2008, dated 2014).

Columns and labels:
SSTR5 [1] = molecular target: T1, SSTR5 (Homo sapiens, UniProt P35346); assay: Functional assay to assess the inhibition of SSTR5 mediated cyclic AMP production; assay type: cell-based, human or mouse; settings: SSTR5 stable CHO cells, 5 μM FSK, Lance cAMP assay kit, eight-point titration
Description: Functional Assay to Assess the Inhibition of SSTR5Mediated Cyclic AMP Production:
The effects of compounds that bind to human and murine SSTR5 with various affinities on the functional activity of the receptor were assessed by measuring cAMP production in the presence of Forskolin (FSK) alone or FSK plus SS-28 in SSTR5 expressing CHO cells. FSK acts to induce cAMP production in these cells by activating adenylate cyclases, whereas SS-28 suppresses cAMP production in the SSTR5 stable cells by binding to SSTR5 and the subsequent inhibition of adenylate cyclases via an alpha subunit of […] (Gαi).
To measure the agonism activity of the compounds, human or mouse SSTR5 stable CHO cells were pre-incubated with the compounds for 15 min, followed by a one-hour incubation of the cells with 5 μM FSK (in the continuous presence of the compounds). The amount of cAMP produced during the incubation was quantified with the Lance cAMP assay kit (PerkinElmer, CA) according to the manufacturer's instruction, as well as, an IC50 value was obtained by an eight-point titration.
Target sequence in this assay (P35346 whole entry): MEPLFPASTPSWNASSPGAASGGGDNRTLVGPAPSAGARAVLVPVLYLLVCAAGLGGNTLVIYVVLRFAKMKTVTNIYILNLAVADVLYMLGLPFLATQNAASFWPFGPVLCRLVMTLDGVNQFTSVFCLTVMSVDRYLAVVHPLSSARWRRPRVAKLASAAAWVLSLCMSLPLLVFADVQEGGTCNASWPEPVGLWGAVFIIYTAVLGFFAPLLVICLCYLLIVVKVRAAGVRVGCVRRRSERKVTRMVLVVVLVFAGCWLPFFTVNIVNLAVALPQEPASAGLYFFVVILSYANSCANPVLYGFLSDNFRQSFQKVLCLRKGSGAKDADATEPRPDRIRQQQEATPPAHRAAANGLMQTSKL

SSTR5 [2] = molecular target: T1, SSTR5; assay: SSTR5 binding (R5 Bnd)
Target sequence in this assay (P35346 whole entry, species assumed): as the sequence (P35346 whole entry) above

CCOc1cc(CN2CC[C@H]3C(NC(=O)c4ccc5[nH]c(C)nc5c4)CC[C@H]32)cc(OCC)c1-c1ccc(F)cc1 (stereo partly shown) [Example 69]
IC50 (SSTR5 [1]): 137 nM | IC50 (SSTR5 [2]): 53.5 nM

CCOc1cc(CN2CC[C@H]3C(Nc4nc5ccc(C(=O)O)cc5o4)CC[C@H]32)cc(OCC)c1-c1ccc(F)cc1 (stereo partly shown) [Example 79]
IC50 (SSTR5 [1]): 5.21 nM | IC50 (SSTR5 [2]): 1.29 nM

CCOc1cc(CN2CC[C@H]3C(NC(=O)c4cncnc4)CC[C@H]32)cc(OCC)c1-c1ccc(F)cc1 (stereo partly shown) [Example 75]
IC50 (SSTR5 [1]): 386 nM | IC50 (SSTR5 [2]): 148 nM

CCOc1cc(CN2CC[C@H]3C(Nc4nc5ccc(F)cc5o4)CC[C@H]32)cc(OCC)c1-c1ccc(F)cc1 (stereo partly shown) [Example 83]
IC50 (SSTR5 [1]): 252 nM | IC50 (SSTR5 [2]): 7.47 nM

CCOc1cc(CN2CC[C@H]3C(NC(=O)c4ccc5c(c4)nnn5C(C)C)CC[C@H]32)cc(OCC)c1-c1ccc(F)cc1 (stereo partly shown) [Example 72]
IC50 (SSTR5 [1]): 59.5 nM | IC50 (SSTR5 [2]): 4.65 nM

CCOc1cc(CN2CC[C@H]3C(Nc4nc5cc(S(=O)(=O)/N=C/N(C)C)ccc5o4)CC[C@H]32)cc(OCC)c1-c1ccc(F)cc1 (stereo partly shown) [Example 100]
IC50 (SSTR5 [1]): 38.7 nM | IC50 (SSTR5 [2]): 2.07 nM

CCOc1cc(CN2CC[C@H]3C(NC(=O)c4ccc(C)nc4)CC[C@H]32)cc(OCC)c1-c1ccc(F)cc1 (stereo partly shown) [Example 60]
IC50 (SSTR5 [1]): 46.2 nM | IC50 (SSTR5 [2]): 5.45 nM

CCOc1cc(CN2CC[C@H]3C(NC(=O)c4cnc5cc(Cl)ccc5c4O)CC[C@H]32)cc(OCC)c1-c1ccc(F)cc1 (stereo partly shown) [Example 61]
IC50 (SSTR5 [1]): 122 nM | IC50 (SSTR5 [2]): 15.8 nM

CCOc1cc(CN2CC[C@H]3C(NC(=O)OCc4ccccc4)CC[C@H]32)cc(OCC)c1-c1ccc(F)cc1 (stereo partly shown) [Example 97]
IC50 (SSTR5 [1]): 32.4 nM | IC50 (SSTR5 [2]): 1.44 nM

CCOc1cc(CN2CC[C@H]3C(NC(=O)Nc4cccc(C)c4)CC[C@H]32)cc(OCC)c1-c1ccc(F)cc1 (stereo partly shown) [Example 90]
IC50 (SSTR5 [1]): 85.7 nM | IC50 (SSTR5 [2]): 4.99 nM

Cc1cncc(C(=O)N[C@H]2CC[C@@H]3[C@H]2CCN3Cc2cccc(-c3ccccc3)c2)c1 [Example 19]
IC50 (SSTR5 [1]): 1220 nM | IC50 (SSTR5 [2]): 124 nM

CCOc1cc(CN2CC[C@H]3C(NC(=O)c4cccc(C)c4)CC[C@H]32)cc(OCC)c1-c1ccc(F)cc1 (stereo in doubt) [Example 63]
IC50 (SSTR5 [1]): 32.6 nM | IC50 (SSTR5 [2]): 1.72 nM

CCOc1cc(CN2CC[C@H]3C(NC(=O)c4cccc(C)c4)CC[C@H]32)cc(OCC)c1-c1ccc(F)cc1 (stereo in doubt) [Example 81]
IC50 (SSTR5 [1]): 70.1 nM | IC50 (SSTR5 [2]): 5.01 nM

CCOc1cc(CN2CC[C@H]3C(NS(=O)(=O)c4cccc(C)c4)CC[C@H]32)cc(OCC)c1-c1ccc(F)cc1 (stereo partly shown) [Example 101]
IC50 (SSTR5 [1]): 263 nM | IC50 (SSTR5 [2]): 12.1 nM
